Experimental data reported in ChEMBL document CHEMBL4507258 (2021).

Assays:
[1] = target: Kappa-type opioid receptor (Homo sapiens, UniProt P41145); test: GPCRScan assay: inhibition of KOR; design: radioligand conc. used [nm] 0.6 – 1.2, parental cells stable HEK
[2] = target: Alpha-1D adrenergic receptor (Homo sapiens) (UniProt P25100); settings: Compound concentration 10.0 uM
[3] = target: Muscarinic acetylcholine receptor M5 (Homo sapiens) (UniProt P08912); settings: Compound concentration 10.0 uM
[4] = target: Sodium-dependent noradrenaline transporter (Homo sapiens) (UniProt P23975); settings: Compound concentration 10.0 uM
D(4) dopamine receptor = D(4) dopamine receptor (Homo sapiens, UniProt P21917); test: GPCRScan assay: inhibition of D4; design: radioligand conc. used [nm] 0.6 – 1.7, parental cells Stable HEK
[5] = target: Alpha-2A adrenergic receptor (Homo sapiens) (UniProt P08913); settings: Compound concentration 10.0 uM
[6] = target: Alpha-2C adrenergic receptor (Homo sapiens) (UniProt P18825); settings: Compound concentration 10.0 uM
[7] = target: Cannabinoid receptor 1 (Homo sapiens) (UniProt P21554); test: Cannabinoid CB1 receptor (h) CEREP ligand profiling; settings: Compound concentration 10.0 uM
[8] = target: Interleukin-1 beta (Homo sapiens) (UniProt P01584); test: Interleukin-1beta CEREP ligand profiling; settings: Compound concentration 10.0 uM
[9] = target: Adrenergic receptor alpha-1 (Homo sapiens) (UniProt P35348+P25100+P35368); test: alpha1-adrenoceptor (non-selective) CEREP ligand profiling; assay type: protein assay; settings: Compound concentration 10.0 uM
[10] = target: Serine/threonine-protein kinase DCLK1 (Homo sapiens, UniProt O15075); test: Inhibition of DCLK1 at compound concentration of 10.0 uM using the ScanMax (DiscoverX)
[11] = target: D(1B) dopamine receptor (Homo sapiens) (UniProt P21918); test: Dopamine D5 receptor (h) CEREP ligand profiling; settings: Compound concentration 10.0 uM
[12] = target: Adrenergic receptor alpha-2 (Homo sapiens) (UniProt P08913+P18825+P18089); test: alpha2-adrenoceptor (non-selective) CEREP ligand profiling; assay type: protein assay; settings: Compound concentration 10.0 uM
[13] = target: 5-hydroxytryptamine receptor 2A (Homo sapiens) (UniProt P28223); test: 5-Hydroxytryptamine2A (h) CEREP ligand profiling; settings: Compound concentration 10.0 uM
[14] = target: Neuropeptide Y receptor type 1 (Homo sapiens) (UniProt P25929); test: Y1 receptor CEREP ligand profiling; settings: Compound concentration 10.0 uM
[15] = target: Gastrin/cholecystokinin type B receptor (Homo sapiens) (UniProt P32239); test: CholecystokininB receptor (h) CEREP ligand profiling; settings: Compound concentration 10.0 uM
[16] = target: Voltage-gated L-type calcium channel (verapamil site) (Homo sapiens, UniProt O60840+Q01668+Q13698+Q13936); test: Ca2+ channel (L, verapamil site) CEREP ligand profiling; assay type: protein assay; settings: compound concentration 10 uM
[17] = target: P2X receptor (Rattus norvegicus) (UniProt P51579+P49653+P51578+Q64663+P47824+P51577+P49654); test: P2X-purinergic receptor CEREP ligand profiling; assay type: protein assay; settings: Compound concentration 10.0 uM
[18] = target: Cholecystokinin receptor type A (Homo sapiens) (UniProt P32238); test: CholecystokininA receptor (h) CEREP ligand profiling; settings: Compound concentration 10.0 uM
[19] = target: Cannabinoid receptor 2 (Homo sapiens) (UniProt P34972); test: Cannabinoid CB2 receptor (h) CEREP ligand profiling; settings: Compound concentration 10.0 uM
[20] = target: Tumor necrosis factor (Homo sapiens) (UniProt P01375); test: Tumor necrosis factor-alpha CEREP ligand profiling; settings: Compound concentration 10.0 uM
[21] = target: 5-hydroxytryptamine receptor 5A (Homo sapiens) (UniProt P47898); test: 5-Hydroxytryptamine5A (h) CEREP ligand profiling; settings: Compound concentration 10.0 uM
[22] = target: Beta-1 adrenergic receptor (Homo sapiens) (UniProt P08588); test: beta1-adrenoceptor (h) CEREP ligand profiling; settings: Compound concentration 10.0 uM
[23] = target: D(1A) dopamine receptor (Homo sapiens) (UniProt P21728); test: Dopamine D1 receptor (h) CEREP ligand profiling; settings: Compound concentration 10.0 uM
[24] = target: Endothelin receptor type B (Homo sapiens) (UniProt P24530); settings: Compound concentration 10.0 uM
[25] = target: Substance-P receptor (Homo sapiens) (UniProt P25103); test: Neurokinin-1 receptor (h) CEREP ligand profiling; settings: Compound concentration 10.0 uM
[26] = target: Substance-K receptor (Homo sapiens) (UniProt P21452); test: Neurokinin A receptor (h) CEREP ligand profiling; settings: Compound concentration 10.0 uM
[27] = target: Neuropeptide Y receptor type 2 (Homo sapiens) (UniProt P49146); test: Y2 receptor CEREP ligand profiling; settings: Compound concentration 10.0 uM
[28] = target: Vasopressin V1a receptor (Homo sapiens) (UniProt P37288); test: Vasopresine V1a receptor (h) CEREP ligand profiling; settings: Compound concentration 10.0 uM
[29] = target: Thromboxane A2 receptor (Homo sapiens) (UniProt P21731); test: Thromboxane A2/ prostaglandin H2 receptors CEREP ligand profiling; settings: Compound concentration 10.0 uM
[30] = target: Muscarinic acetylcholine receptor M1 (Homo sapiens) (UniProt P11229); test: Muscarinic M1 receptors (h) CEREP ligand profiling; settings: Compound concentration 10.0 uM
Sodium channel (site 2) = Sodium channel (site 2) (Homo sapiens, UniProt P35498+P35499+Q01118+Q14524+Q15858+Q99250+Q9NY46+Q9UI33+Q9UQD0+Q9Y5Y9); test: Na+ channel (site 2) CEREP ligand profiling; assay type: protein assay; settings: compound concentration 10 uM
[31] = target: 5-hydroxytryptamine receptor 7 (Homo sapiens) (UniProt P34969); settings: Compound concentration 10.0 uM
[32] = target: Somatostatin receptor (Homo sapiens) (UniProt P35346+P30874+P31391+P30872+P32745); test: Somatostatin receptor CEREP ligand profiling; assay type: protein assay; settings: Compound concentration 10.0 uM
[33] = target: Adenosine receptor A3 (Homo sapiens) (UniProt P0DMS8); test: Adenosine A 3 receptor (h) CEREP ligand profiling; settings: Compound concentration 10.0 uM
[34] = target: Melatonin receptor type 1A (Homo sapiens) (UniProt P48039); test: Melatonin ML1 receptor CEREP ligand profiling; settings: Compound concentration 10.0 uM
[35] = target: Sodium-dependent noradrenaline transporter (Homo sapiens) (UniProt P23975); test: Norepinephrine uptake CEREP ligand profiling; settings: Compound concentration 10.0 uM
[36] = target: D(3) dopamine receptor (Homo sapiens) (UniProt P35462); test: Dopamine D3 receptor (h) CEREP ligand profiling; settings: Compound concentration 10.0 uM
[37] = target: P2Y receptor (Homo sapiens) (UniProt Q9H244+P51582+P47900+P41231+Q15391+Q15077+Q96G91+Q9BPV8); test: P2Y-purinergic receptor CEREP ligand profiling; assay type: protein assay; settings: Compound concentration 10.0 uM
[38] = target: Voltage-gated (volt-dependent) potassium channel (Homo sapiens, UniProt O43525+O43526+O95259+P16389+P17658+P22001+P22459+P22460+P48547+P51787+P56696+Q03721+Q09470+Q12809+Q14003+Q14721+Q16322+Q6PIU1+Q8NCM2+Q8TAE7+Q8TDN1+Q8TDN2+Q92953+Q96KK3+Q96L42+Q96PR1+Q96RP8+Q9BQ31+Q9H252+Q9H3M0+Q9NR82+Q9NS40+Q9NSA2+Q9NZV8+Q9UIX4+Q9UJ96+Q9UK17+Q9ULD8+Q9ULS6+Q9UQ05); test: K+ channel (volt-dependent) CEREP ligand profiling; assay type: protein assay; settings: compound concentration 10 uM
[39] = target: Beta-2 adrenergic receptor (Homo sapiens) (UniProt P07550); test: beta2-adrenoceptor (h) CEREP ligand profiling; settings: Compound concentration 10.0 uM
Chain of Beta-2 adrenergic receptor (Homo sapiens) (P07550 whole entry, looked up): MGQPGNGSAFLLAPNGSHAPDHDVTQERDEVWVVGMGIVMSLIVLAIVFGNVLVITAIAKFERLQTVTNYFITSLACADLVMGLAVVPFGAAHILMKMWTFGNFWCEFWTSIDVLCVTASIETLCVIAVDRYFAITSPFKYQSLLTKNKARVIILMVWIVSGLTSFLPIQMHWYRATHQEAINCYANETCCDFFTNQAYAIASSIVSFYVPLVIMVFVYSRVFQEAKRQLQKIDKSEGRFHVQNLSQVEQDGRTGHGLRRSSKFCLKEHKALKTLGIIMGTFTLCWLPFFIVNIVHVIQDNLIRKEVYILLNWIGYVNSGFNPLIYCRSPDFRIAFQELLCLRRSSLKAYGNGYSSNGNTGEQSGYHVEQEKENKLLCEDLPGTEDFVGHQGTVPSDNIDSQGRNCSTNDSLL

Chain of Kappa-type opioid receptor (P41145 whole entry): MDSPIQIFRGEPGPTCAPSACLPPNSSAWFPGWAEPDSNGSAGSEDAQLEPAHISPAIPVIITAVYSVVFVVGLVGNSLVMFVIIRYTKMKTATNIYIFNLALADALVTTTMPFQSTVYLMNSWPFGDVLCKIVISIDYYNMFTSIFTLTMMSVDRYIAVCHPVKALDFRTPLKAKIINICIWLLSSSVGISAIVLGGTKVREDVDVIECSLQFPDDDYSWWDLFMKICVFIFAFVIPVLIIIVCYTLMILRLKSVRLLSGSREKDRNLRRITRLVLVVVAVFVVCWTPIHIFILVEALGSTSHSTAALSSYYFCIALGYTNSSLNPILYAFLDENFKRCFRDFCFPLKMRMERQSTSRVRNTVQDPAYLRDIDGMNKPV
Chain of Sodium-dependent noradrenaline transporter (Homo sapiens) (P23975 whole entry): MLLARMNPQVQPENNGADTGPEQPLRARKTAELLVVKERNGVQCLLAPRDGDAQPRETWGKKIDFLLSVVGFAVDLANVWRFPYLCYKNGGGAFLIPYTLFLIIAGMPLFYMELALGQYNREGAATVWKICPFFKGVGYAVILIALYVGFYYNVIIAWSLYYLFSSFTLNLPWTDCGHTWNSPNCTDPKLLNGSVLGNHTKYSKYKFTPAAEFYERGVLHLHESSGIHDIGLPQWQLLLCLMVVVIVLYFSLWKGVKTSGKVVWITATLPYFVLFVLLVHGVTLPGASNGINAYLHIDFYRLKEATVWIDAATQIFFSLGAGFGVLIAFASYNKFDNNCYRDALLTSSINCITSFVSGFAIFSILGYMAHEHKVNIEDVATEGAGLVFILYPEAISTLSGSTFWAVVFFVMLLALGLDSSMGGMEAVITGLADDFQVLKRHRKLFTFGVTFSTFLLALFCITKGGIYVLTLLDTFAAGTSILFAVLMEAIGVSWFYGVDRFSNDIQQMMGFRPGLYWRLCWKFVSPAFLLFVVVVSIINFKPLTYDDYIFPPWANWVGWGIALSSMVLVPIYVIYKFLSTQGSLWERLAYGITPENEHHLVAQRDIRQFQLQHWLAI
Chain of Neuropeptide Y receptor type 2 (Homo sapiens) (P49146 whole entry): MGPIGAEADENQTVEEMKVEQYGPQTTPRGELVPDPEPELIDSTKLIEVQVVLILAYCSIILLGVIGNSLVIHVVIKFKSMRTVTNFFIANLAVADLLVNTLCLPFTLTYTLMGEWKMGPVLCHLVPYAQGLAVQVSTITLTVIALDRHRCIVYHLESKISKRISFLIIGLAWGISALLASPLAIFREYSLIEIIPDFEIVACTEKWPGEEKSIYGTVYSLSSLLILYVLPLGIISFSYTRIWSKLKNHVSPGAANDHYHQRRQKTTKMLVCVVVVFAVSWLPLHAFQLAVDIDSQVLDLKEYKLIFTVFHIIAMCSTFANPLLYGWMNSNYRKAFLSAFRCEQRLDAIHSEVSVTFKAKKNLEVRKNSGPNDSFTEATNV
Chain of Substance-K receptor (Homo sapiens) (P21452 whole entry): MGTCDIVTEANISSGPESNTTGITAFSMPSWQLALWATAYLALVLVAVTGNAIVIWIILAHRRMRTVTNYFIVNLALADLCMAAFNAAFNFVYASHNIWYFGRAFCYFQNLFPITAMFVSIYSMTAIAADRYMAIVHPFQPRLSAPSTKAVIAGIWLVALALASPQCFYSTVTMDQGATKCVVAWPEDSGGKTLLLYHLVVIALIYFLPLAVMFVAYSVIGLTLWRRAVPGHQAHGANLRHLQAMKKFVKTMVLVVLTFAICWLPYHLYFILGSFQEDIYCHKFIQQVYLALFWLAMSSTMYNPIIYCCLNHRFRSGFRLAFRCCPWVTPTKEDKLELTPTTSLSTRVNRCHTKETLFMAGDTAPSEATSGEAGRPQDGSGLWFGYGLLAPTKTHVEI
Chain of Serine/threonine-protein kinase DCLK1 (O15075 whole entry): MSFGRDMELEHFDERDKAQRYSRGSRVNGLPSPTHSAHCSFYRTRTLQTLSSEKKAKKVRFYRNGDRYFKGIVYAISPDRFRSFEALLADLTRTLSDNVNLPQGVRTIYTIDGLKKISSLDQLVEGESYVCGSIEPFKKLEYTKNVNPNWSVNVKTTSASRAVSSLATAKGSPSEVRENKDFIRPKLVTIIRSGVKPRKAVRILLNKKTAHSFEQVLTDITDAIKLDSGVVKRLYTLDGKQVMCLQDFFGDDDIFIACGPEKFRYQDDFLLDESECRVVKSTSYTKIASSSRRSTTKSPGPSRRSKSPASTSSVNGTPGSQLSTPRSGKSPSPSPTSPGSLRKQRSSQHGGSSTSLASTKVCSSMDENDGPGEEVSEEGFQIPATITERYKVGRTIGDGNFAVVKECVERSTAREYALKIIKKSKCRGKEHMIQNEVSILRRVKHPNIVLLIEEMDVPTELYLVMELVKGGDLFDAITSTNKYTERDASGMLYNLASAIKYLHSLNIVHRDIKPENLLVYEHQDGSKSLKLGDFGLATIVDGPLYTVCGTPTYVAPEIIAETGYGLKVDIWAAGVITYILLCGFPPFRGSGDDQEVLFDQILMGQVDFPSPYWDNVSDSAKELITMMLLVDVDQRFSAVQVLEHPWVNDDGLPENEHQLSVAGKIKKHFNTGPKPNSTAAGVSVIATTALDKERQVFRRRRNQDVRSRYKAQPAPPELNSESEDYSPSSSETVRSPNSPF
Chain of D(3) dopamine receptor (Homo sapiens) (P35462 whole entry): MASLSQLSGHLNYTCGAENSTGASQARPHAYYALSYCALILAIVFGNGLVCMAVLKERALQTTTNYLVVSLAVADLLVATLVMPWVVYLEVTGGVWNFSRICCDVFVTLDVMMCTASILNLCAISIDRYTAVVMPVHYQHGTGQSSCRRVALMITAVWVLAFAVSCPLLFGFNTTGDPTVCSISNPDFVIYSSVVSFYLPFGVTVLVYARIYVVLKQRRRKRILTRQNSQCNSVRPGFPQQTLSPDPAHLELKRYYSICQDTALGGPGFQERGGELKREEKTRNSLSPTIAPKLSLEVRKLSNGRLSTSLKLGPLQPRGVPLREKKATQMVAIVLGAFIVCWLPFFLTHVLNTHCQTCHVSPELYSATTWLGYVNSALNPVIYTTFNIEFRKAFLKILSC
Chain of Alpha-2A adrenergic receptor (Homo sapiens) (P08913 whole entry): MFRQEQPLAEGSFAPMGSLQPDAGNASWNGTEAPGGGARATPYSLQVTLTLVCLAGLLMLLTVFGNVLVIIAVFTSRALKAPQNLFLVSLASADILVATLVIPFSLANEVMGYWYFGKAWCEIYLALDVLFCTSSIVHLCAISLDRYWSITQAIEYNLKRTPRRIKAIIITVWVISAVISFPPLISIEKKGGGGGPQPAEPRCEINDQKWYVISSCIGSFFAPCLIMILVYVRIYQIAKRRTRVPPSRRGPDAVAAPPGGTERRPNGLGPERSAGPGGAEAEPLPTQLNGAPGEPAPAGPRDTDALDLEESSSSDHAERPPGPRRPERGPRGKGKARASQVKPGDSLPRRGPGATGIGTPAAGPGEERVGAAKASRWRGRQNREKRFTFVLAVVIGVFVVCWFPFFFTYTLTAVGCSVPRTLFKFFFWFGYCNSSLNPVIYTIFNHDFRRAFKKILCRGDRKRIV
Chain of Muscarinic acetylcholine receptor M5 (Homo sapiens) (P08912 whole entry): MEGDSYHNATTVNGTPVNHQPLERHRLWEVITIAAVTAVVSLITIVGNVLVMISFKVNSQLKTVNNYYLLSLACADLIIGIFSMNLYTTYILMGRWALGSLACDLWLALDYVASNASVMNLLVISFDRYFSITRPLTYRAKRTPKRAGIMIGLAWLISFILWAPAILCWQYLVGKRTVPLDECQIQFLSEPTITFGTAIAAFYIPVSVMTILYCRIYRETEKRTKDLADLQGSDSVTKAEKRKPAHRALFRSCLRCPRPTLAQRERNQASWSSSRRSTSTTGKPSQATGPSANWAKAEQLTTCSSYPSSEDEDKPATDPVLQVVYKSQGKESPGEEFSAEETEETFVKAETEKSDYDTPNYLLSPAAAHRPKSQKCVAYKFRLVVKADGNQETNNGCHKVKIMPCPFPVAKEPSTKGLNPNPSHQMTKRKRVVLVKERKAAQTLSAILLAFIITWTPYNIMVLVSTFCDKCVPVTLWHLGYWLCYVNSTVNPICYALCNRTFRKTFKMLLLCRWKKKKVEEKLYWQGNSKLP
Chain of Neuropeptide Y receptor type 1 (Homo sapiens) (P25929 whole entry): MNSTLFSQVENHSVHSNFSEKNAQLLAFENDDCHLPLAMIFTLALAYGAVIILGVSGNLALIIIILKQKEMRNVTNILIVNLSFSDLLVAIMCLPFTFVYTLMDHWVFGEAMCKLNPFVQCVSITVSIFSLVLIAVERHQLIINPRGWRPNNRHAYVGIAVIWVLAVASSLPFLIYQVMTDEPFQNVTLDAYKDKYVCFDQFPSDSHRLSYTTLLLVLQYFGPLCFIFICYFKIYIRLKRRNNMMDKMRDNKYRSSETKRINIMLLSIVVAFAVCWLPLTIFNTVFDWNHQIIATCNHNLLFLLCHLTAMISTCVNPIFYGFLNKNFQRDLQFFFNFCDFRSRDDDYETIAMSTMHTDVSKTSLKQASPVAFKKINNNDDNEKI
Chain of Tumor necrosis factor (Homo sapiens) (P01375 whole entry): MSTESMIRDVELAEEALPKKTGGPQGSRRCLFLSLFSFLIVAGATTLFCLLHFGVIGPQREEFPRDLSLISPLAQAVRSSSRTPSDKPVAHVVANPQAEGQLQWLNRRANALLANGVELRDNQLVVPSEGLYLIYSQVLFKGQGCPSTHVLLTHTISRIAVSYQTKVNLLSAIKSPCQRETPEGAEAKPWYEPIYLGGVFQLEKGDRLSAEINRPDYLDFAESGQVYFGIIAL

`CCCCN(CCCC)C(=O)CN1C[C@@H](c2cc(OC)c3c(c2)OCO3)[C@H](C(=O)O)[C@H]1CC(C)(C)CCC` [A-545] gave a Ki ([1]; read-out: Ki) of 2780 nM, a Ki ([1]; read-out: pKi (converted)) of 2820 nM and an inhibition [2] of 6.55%. For the same compound, the inhibition [3] was 1.1%, the inhibition [4] was 38.5% and the Ki (D(4) dopamine receptor) was 5.5 nM. It also gave an inhibition [5] of 19.1% and an inhibition [6] of 56.1%.

`CCCCN(CCCC)C(=O)CN1C[C@H](c2cc(OC)c3c(c2)OCO3)[C@@H](C(=O)O)[C@@H]1CC(C)(C)CCC` [ABT-546] gave an inhibition [7] of less than 10%, an inhibition [8] of less than 10% and an inhibition [9] of less than 10%. The Kd [10] was > 10000 nM (not active), the inhibition [11] was less than 10% and the inhibition [12] was 18%. The inhibition [13] was less than 10%, the inhibition [14] was less than 10% and the inhibition [15] was less than 10%. The inhibition at 10 µM [16] was 29% (not active), the inhibition [17] was 37% and the inhibition [18] was less than 10%. It also gave an inhibition [19] of 11%, an inhibition [20] of less than 10% and an inhibition [21] of less than 10%. For the same compound, the inhibition [22] was less than 10%, the inhibition [23] was 14% and the inhibition [24] was 56%. For the same compound, the inhibition [25] was less than 10%, the inhibition [26] was less than 10% and the inhibition [27] was less than 10%. For the same compound, the inhibition [28] was less than 10%, the inhibition [29] was 16% and the inhibition [30] was less than 10%. For the same compound, the inhibition at 10 µM (Sodium channel (site 2)) was < 10% (not active), the inhibition [31] was -2.24% and the inhibition [32] was less than 10%. The inhibition [33] was 32%, the inhibition [34] was 12% and the inhibition [35] was less than 10%. For the same compound, the inhibition [36] was less than 10%, the inhibition [37] was less than 10% and the inhibition at 10 µM [38] was < 10% (not active). It also gave an inhibition [39] of less than 10%.
